The text below walks through data of patent US20230159445A1, “STAT INHIBITORY COMPOUNDS AND COMPOSITIONS” (JANPIX LIMITED, priority 2020, published 2023).

One series relates to glutathione (GSH). Briefly: Reactivity Profiling with Glutathione (GSH), half-life by HPLC. To be noted: 5 mM glutathione (GSH) in IMDM with 10% FBS.
Series [1] concerns normal human fibroblast (NHF) cells. Briefly: NHF Cell Cytotoxicity Assay (CellTiter-Blue, 72 h), off-target effects. To be noted: Homo sapiens, Fibroblast; pooled NHF cells. It counts as cell-based. The method, boiled down:
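Normal human fibroblasts (1×10^4/well, 10% FBS medium) were treated after 24 h with inhibitor at 0.097656-50 μM for 72 h at 37° C. Viability was read by CellTiter-Blue fluorescence (560/590 nm), normalized to DMSO control, and IC50 obtained from a variable-slope log(inhibitor)-response fit of four replicates.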
On the technique in general: The colour change of resazurin is a common sign of viable cells or microbes.

The test system of another series is MV4-11 cells. Put plainly: MV4-11 Cell Cytotoxicity Assay (CellTiter-Blue, 72 h). It counts as cell-based, human. The note with it: Homo sapiens, MV4-11; MV-4-11 cells. The method, boiled down:
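Cells seeded 24 h before treatment, then exposed 72 h at 37° C, 5% CO2 to inhibitors in triplicate, top concentration 50 μM with 1:2 serial dilutions (0.5% DMSO vehicle). Viability read by CellTiter-Blue fluorescence at 560/590 nm after 1 h.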

With `CN(C)c1cc(C(=O)O)ccc1N(Cc1cc(C2CC2)cc(C2CC2)c1)C(=O)CN(Cc1ccc(F)cc1Cl)S(=O)(=O)c1c(F)c(F)c(F)c(F)c1F` [Compound 1211, 4-(2-(N-(2-chloro-4-fluorobenzyl)-(2,3,4,5,6-pentafluorophenyl)sulfon-amido)-N-(3,5-dicyclopropylbenzyl)acetamido)-3-(dimethylamino) benzoic acid], the half-life at 25 μM in the series on glutathione (GSH) was in the range of 4.12 to 9.23 h. Further, the IC50 is 10000 to 20000 nM in series [1] and 316 to 1000 nM with MV4-11 cells.
In the case of `CC(C)Oc1cc(CN(C(=O)CN(Cc2ccccc2C(F)(F)F)S(=O)(=O)c2c(F)c(F)c(F)c(F)c2F)c2ccc(C(=O)O)cc2OC2CC2)cc(C2CC2)c1` [Compound 1213, 3-cyclopropoxy-4-(N-(3-cyclopropyl-5-isopropoxybenzyl)-2-(N-(2-(trifluoromethyl)benzyl)-(2,3,4,5,6-pentafluoro-phenyl)sulfonamido)acetamido)benzoic acid], in the series with glutathione (GSH), the half-life at 25 μM lay in the range of 2.37 to 4.12 h. Moreover, the values for the IC50 (in series [1]; in the series on MV4-11 cells) were 10000 to 20000 nM and 0.01 to 316 nM, respectively.
The corresponding values for `O=C(O)c1ccc(N(Cc2cc(C3CC3)cc(C3CC3)c2)C(=O)CN(Cc2ncc(F)cc2Cl)S(=O)(=O)c2c(F)c(F)c(F)c(F)c2F)c(OC2CC2)c1` [Compound 1214, 4-(2-(N-((3-chloro-5-fluoropyridin-2-yl)methyl)-(2,3,4,5,6-pentafluorophenyl)sulfon-amido)-N-(3,5-dicyclopropylbenzyl)acetamido)-3-cyclopropoxybenzoic acid] are 4.12 to 9.23 h, 1 to 10000 nM and 0.01 to 316 nM.
The like results for `CN(C)c1cc(C(=O)O)ccc1N(Cc1cc(C2CC2)cc(C2CC2)c1)C(=O)CN(Cc1ccccc1C(F)(F)F)S(=O)(=O)c1c(F)c(F)c(F)c(F)c1F` [Compound 1215, 4-(N-(3,5-dicyclopropylbenzyl)-2-(N-(2-(trifluoromethyl)benzyl)-(2,3,4,5,6-pentafluoro-phenyl)sulfonamido)acetamido)-3-(dimethylamino) benzoic acid] were, in that order, 4.12 to 9.23 h, 20000 to 30000 nM and 0.01 to 316 nM.
The corresponding values for `Cc1cc(C(=O)O)ccc1N(Cc1cc(C2CC2)cc(C2CC2)c1)C(=O)CN(Cc1cnccc1C(F)(F)F)S(=O)(=O)c1c(F)c(F)c(F)c(F)c1F` [Compound 1216, 4-(N-(3,5-dicyclopropylbenzyl)-2-(N-((4-(trifluoromethyl)pyridin-3-yl)methyl)-(2,3,4,5,6-pentafluoro-phenyl)sulfonamido)acetamido)-3-methylbenzoic acid] are 0.00167 to 2.37 h, 1 to 10000 nM and 0.01 to 316 nM.
Consider `Cc1cc(C(=O)O)ccc1N(Cc1cc(C2CC2)cc(C2CC2)c1)C(=O)CN(Cc1ccccc1C(F)(F)F)S(=O)(=O)c1c(F)c(F)c(F)c(F)c1F` [Compound 1217, 4-(N-(3,5-dicyclopropylbenzyl)-2-(N-(2-(trifluoromethyl)benzyl)-(2,3,4,5,6-pentafluoro-phenyl)sulfonamido)acetamido)-3-methylbenzoic acid], for which the half-life at 25 μM in the series on glutathione (GSH) is 4.12 to 9.23 h. In addition, the IC50 in series [1] lay in the range of 20000 to 30000 nM; in the series with MV4-11 cells, 0.01 to 316 nM.
The corresponding values for `Cc1cc(C(=O)O)ccc1N(Cc1cc(C2CC2)cc(C2CC2)c1)C(=O)CN(Cc1c(F)cc(F)cc1F)S(=O)(=O)c1c(F)c(F)c(F)c(F)c1F` [Compound 1218, 4-(N-(3,5-dicyclopropylbenzyl)-2-(N-(2,4,6-trifluorobenzyl)-(2,3,4,5,6-pentafluoro-phenyl)sulfonamido)acetamido)-3-methylbenzoic acid] are 0.00167 to 2.37 h, 1 to 10000 nM and 0.01 to 316 nM.
`Cc1cc(C(=O)O)ccc1N(Cc1cc(C2CC2)cc(C2CC2)c1)C(=O)CN(Cc1ccc(F)cc1Cl)S(=O)(=O)c1c(F)c(F)c(F)c(F)c1F` [Compound 1219, 4-(2-(N-(2-chloro-4-fluorobenzyl)-(2,3,4,5,6-pentafluorophenyl)sulfon-amido)-N-(3,5-dicyclopropylbenzyl)acetamido)-3-methylbenzoic acid]: in the series on glutathione (GSH), the half-life at 25 μM was in the range of 2.37 to 4.12 h. The figures for the IC50 (in series [1]; in the series on MV4-11 cells) were 1 to 10000 nM and 0.01 to 316 nM, respectively.
The like results for `O=C(O)c1ccc(N(Cc2cc(C3CC3)cc(C3CC3)c2)C(=O)CN(Cc2ccc(F)cc2Cl)S(=O)(=O)c2c(F)c(F)c(F)c(F)c2F)c(OC2CCOC2)c1` (stereo not drawn) [Compound 1220, 4-(2-(N-(2-chloro-4-fluorobenzyl)-(2,3,4,5,6-pentafluorophenyl)sulfon-amido)-N-(3,5-dicyclopropylbenzyl)acetamido)-3-((tetrahydrofuran-3-yl)oxy)benzoic acid] were, in that order, 2.37 to 4.12 h, 1 to 10000 nM and 0.01 to 316 nM.
The like results for `O=C(O)c1ccc(N(Cc2cc(C3CC3)cc(C(F)(F)F)c2)C(=O)CN(Cc2ccccc2C(F)(F)F)S(=O)(=O)c2c(F)c(F)c(F)c(F)c2F)c(OC2CC2)c1` [Compound 1221, 3-cyclopropoxy-4-(N-(3-cyclopropyl-5-(trifluoromethyl)benzyl)-2-(N-(2-(trifluoromethyl)benzyl)-(2,3,4,5,6-pentafluoro-phenyl)sulfonamido)acetamido)benzoic acid] were, in that order, 9.23 to 1670 h, 20000 to 30000 nM and 316 to 1000 nM.
For `O=C(O)c1ccc(N(Cc2cc(C3CC3)cc(C(F)(F)F)c2)C(=O)CN(Cc2ccc(F)cc2Cl)S(=O)(=O)c2c(F)c(F)c(F)c(F)c2F)c(OC2CC2)c1` [Compound 1222, 4-(2-(N-(2-chloro-4-fluorobenzyl)-(2,3,4,5,6-pentafluorophenyl)sulfon-amido)-N-(3-cyclopropyl-5-(trifluoromethyl)benzyl)acetamido)-3-cyclopropoxybenzoic acid], the half-life at 25 μM with glutathione (GSH) was in the range of 4.12 to 9.23 h. The results for the IC50 (in series [1]; with MV4-11 cells) were 10000 to 20000 nM and 0.01 to 316 nM, respectively.
For `CC(C)(C)c1cc(CN(C(=O)CN(Cc2ccc(F)cc2Cl)S(=O)(=O)c2c(F)c(F)c(F)c(F)c2F)c2ccc(C(=O)O)cc2OC2CCOC2)cc(C2CC2)c1` (stereo not drawn) [Compound 1226, 4-(N-(3-(tert-butyl)-5-cyclopropylbenzyl)-2-(N-(2-chloro-4-fluorobenzyl)-(2,3,4,5,6-pentafluorophenyl)sulfon-amido)acetamido)-3-((tetrahydrofuran-3-yl)oxy)benzoic acid], the half-life at 25 μM in the series with glutathione (GSH) was in the range of 2.37 to 4.12 h. For the same compound, the IC50 is 1 to 10000 nM in series [1] and 0.01 to 316 nM in the series on MV4-11 cells.
Compound `CCOc1cc(C(=O)O)ccc1N(Cc1cc(C2CC2)cc(C(C)(C)C)c1)C(=O)CN(Cc1ccc(F)cc1Cl)S(=O)(=O)c1c(F)c(F)c(F)c(F)c1F` [Compound 1227, 4-(N-(3-(tert-butyl)-5-cyclopropylbenzyl)-2-(N-(2-chloro-4-fluorobenzyl)-(2,3,4,5,6-pentafluorophenyl)sulfon-amido)acetamido)-3-ethoxybenzoic acid] returned a half-life at 25 μM with glutathione (GSH) of 4.12 to 9.23 h. The IC50 in series [1] was in the range of 10000 to 20000 nM; in the series with MV4-11 cells it was 0.01 to 316 nM.
The like results for `CC(C)Oc1cc(C(=O)O)ccc1N(Cc1cc(C2CC2)cc(C(C)(C)C)c1)C(=O)CN(Cc1ccc(F)cc1Cl)S(=O)(=O)c1c(F)c(F)c(F)c(F)c1F` [Compound 1228, 4-(N-(3-(tert-butyl)-5-cyclopropylbenzyl)-2-(N-(2-chloro-4-fluorobenzyl)-(2,3,4,5,6-pentafluorophenyl)sulfon-amido)acetamido)-3-isopropoxybenzoic acid] were, in that order, 9.23 to 1670 h, 20000 to 30000 nM and 0.01 to 316 nM.
The corresponding values for `O=C(O)c1ccc(N(Cc2cc(C3CC3)cc(C3CC3)c2)C(=O)CN(Cc2ccc(F)cc2Cl)S(=O)(=O)c2c(F)c(F)c(F)c(F)c2F)c(OC(F)(F)F)c1` [Compound 1231, 4-(2-(N-(2-chloro-4-fluorobenzyl)-(2,3,4,5,6-pentafluorophenyl)sulfon-amido)-N-(3,5-dicyclopropylbenzyl)acetamido)-3-(trifluoromethoxy) benzoic acid] are 4.12 to 9.23 h, 10000 to 20000 nM and 0.01 to 316 nM.
The corresponding values for `CC(C)Oc1cc(CN(C(=O)CN(Cc2ccc(F)cc2Cl)S(=O)(=O)c2c(F)c(F)c(F)c(F)c2F)c2ccc(C(=O)O)cc2OC2CC2)cc(C2CC2)c1` [Compound 1232, 4-(2-(N-(2-chloro-4-fluorobenzyl)-(2,3,4,5,6-pentafluorophenyl)sulfon-amido)-N-(3-cyclopropyl-5-isopropoxybenzyl)acetamido)-3-cyclopropoxybenzoic acid] are 4.12 to 9.23 h, 10000 to 20000 nM and 0.01 to 316 nM.
On to `CC(C)(C)c1cc(CN(C(=O)CN(Cc2c(F)cccc2Cl)S(=O)(=O)c2c(F)c(F)c(F)c(F)c2F)c2ccc(C(=O)O)cc2OC2CC2)cc(C2CC2)c1` [Compound 1238, 4-(N-(3-(tert-butyl)-5-cyclopropylbenzyl)-2-(N-(2-chloro-6-fluorobenzyl)-(2,3,4,5,6-pentafluorophenyl)sulfon-amido)acetamido)-3-cyclopropoxybenzoic acid], for which the half-life at 25 μM in the series on glutathione (GSH) was 9.23 to 1670 h. For the same compound, the IC50 in series [1] lay in the range of 10000 to 20000 nM; with MV4-11 cells, 0.01 to 316 nM.
In the case of `O=C(O)c1ccc(N(Cc2cc(C3CC3)cc(C3CC3)c2)C(=O)CN(Cc2ccc(F)cc2Cl)S(=O)(=O)c2c(F)c(F)c(F)c(F)c2F)c(N2CCOCC2)c1` [Compound 1241, 4-(2-(N-(2-chloro-4-fluorobenzyl)-(2,3,4,5,6-pentafluorophenyl)sulfon-amido)-N-(3,5-dicyclopropylbenzyl)acetamido)-3-morpholinobenzoic acid], the half-life at 25 μM in the series on glutathione (GSH) was 4.12 to 9.23 h. Further, the IC50 lay in the range of 1 to 10000 nM in series [1] and 0.01 to 316 nM in the series with MV4-11 cells.

Usually half-life stands for the time in which the quantity being followed falls by half. By IC50 is commonly meant the concentration that gives 50% inhibition. A lower IC50 goes with greater potency.
